From PubChem BioAssay (NCI) come the findings set out here.

Structures are written as SMILES.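 Five concentrations, 48 hours, 96-well plates. Abbreviation: GI50, concentration required for 50% inhibition of growth. TGI: concentration producing complete growth inhibition.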 Where only a bound is given, the exact number is not on record here.

Common to all, as to test: NCI tumour cell line growth inhibition, 48 h
Test [1] has as its system OVCAR-3 ovarian.
Test [2] relates to SF-539 CNS.
The test system of test [3] is MDA-MB-435.
The subject of test [4] is NCI-H226 lung.
The subject of test [5] is 786-0 renal.
The subject of test [6] is A498 renal.
The test system of test [7] is SW-620 colon.
Test [8] relates to K-562 leukemia.
Test [9] concerns NCI/ADR-RES ovarian.

Turning to `Cc1ccc(OCC2=NC3S/C(=C/c4ccc([N+](=O)[O-])o4)C(=O)N3N2)cc1` (configuration not stated), the TGI in [1] amounted to 4.12 µM; in [2], 4.3 µM; in test [3], 19.8 µM; in [4], 33.3 µM; in test [5] it was 23.7 µM; in [6], 37.8 µM. Moreover, the TGI was 15 µM in [7], 3.98 µM in test [8] and 33.2 µM in test [9].

`CCOC(=O)c1c(-c2cccc(Cl)c2)c(C(=O)OC)c(C)c2sc(C=O)nc12`: the TGI in test [1] was 31.3 µM; in test [2], 35.4 µM; in [3] it was 38.7 µM; in test [4] it was 44.2 µM; in test [7] it was above 100 µM; in [8] it was 89.8 µM. For the same compound, in test [9], the TGI worked out at 68.5 µM.

Turning to `Cc1cc2ccc(OC(=O)c3ccc(N=C(N)N)cc3)cc2oc1=O`, the TGI was found to be 45.9 µM in [1]; 61.6 µM in test [2]; 58.1 µM in [3]; 56.2 µM in [4]; 64.6 µM in [5]; 43.9 µM in [6]. Further, the values for the TGI in test [7], in [8] and in [9] were 78.5 µM, 74.9 µM and above 100 µM, respectively.

On to `COC(=O)c1cc(NC(=O)c2cc(NC(=O)Cc3c[nH]c4ccccc34)cn2C)cn1C`, for which the TGI in test [1] is above 100 µM; in test [2], above 100 µM; in [3], above 100 µM; in test [4], above 100 µM; in test [5], above 100 µM; in test [6], 78.5 µM. Moreover, the TGI in [7], in [8] and in [9] was above 100 µM each time.

Turning to `COC(=O)C1=C(OC(=O)/C=C/c2ccc(Cl)cc2)C(C(=O)OC)[C@]2(O)[C@@H](C(=O)OC)[C@H]1C[C@@H](c1ccccc1)[C@@H]2C(=O)OC` (some centres not stated), the TGI in [1] is above 100 µM; in test [2], 35.6 µM; in test [3] it was above 100 µM; in test [4], 18.6 µM; in test [5] it was above 25.2 µM; in test [6], 44.2 µM. Further, the results for the TGI in test [7], in test [8] and in test [9] were above 100 µM, above 100 µM and above 28.8 µM, respectively.

In the case of `CC1C(=O)c2cc3c(cc2CCN(C)Cc2c1ccc1c2OCO1)OCO3` (configuration not stated), the GI50 in test [1] was above 75 µg/mL; in test [2], 71.2 µg/mL; in test [3] it was 47.7 µg/mL; in [4], above 75 µg/mL; in test [6], above 75 µg/mL; in test [7], above 75 µg/mL. Besides, the GI50 was 24.7 µg/mL in test [8] and 58.3 µg/mL in [9]. The TGI in [1], in test [2], in test [3], in test [4], in [6] and in test [7] was above 75 µg/mL throughout. Besides, the TGI in [8] and in test [9] was above 75 µg/mL throughout.

On to `CS(C)(=O)=Nn1c(=O)n2n(c1=O)C1c3ccccc3C2c2ccccc21`, for which the TGI in [1], in [2], in test [3], in test [6], in [7] and in test [8] was above 100 µM each time. The TGI in test [9] was above 100 µM.

With `COc1ccc(-c2nn(-c3ccc(NC(=O)c4cc(Cl)cc(Cl)c4)cc3)cc2-c2ccncc2)cc1Cl`, the GI50 in test [1] was above 100 µM; in test [2], 2 µM; in test [3] it was above 100 µM; in test [4] it was above 100 µM; in [6], 3.04 µM; in test [7], above 100 µM. For the same compound, the GI50 is 1.86 µM in test [8] and above 100 µM in [9]. The TGI in test [1], in test [2], in test [3], in test [4], in test [6] and in test [7] was above 100 µM in each case. The TGI in test [8] and in test [9] was above 100 µM throughout.

As for `CC1=C[C@@H](C)C[C@]2(C)CC[C@H](O2)[C@]23CC[C@](CO)(C[C@H](O2)[C@@H]2O[C@@](C)(CC2=O)[C@@H](O)[C@H]2CC[C@@]4(CCC[C@@H](O4)[C@H](C)C(=O)O[C@H]4C[C@H]([C@]5(O)OCC[C@H](C)[C@@H]5O)O[C@H]4C=C1)O2)O3`, the TGI in test [1] is 0.102 µM; in test [3], above 10 µM; in test [6] it was 0.0156 µM; in test [7], above 10 µM; in test [8], above 10 µM; in test [9], above 10 µM.

Regarding `COC(=O)C1CC23C4=C(CCC41)CCC1CN4CC(C)C(CC(OC(C)=O)C12COC(C)=O)C43O` (configuration not stated), the TGI in test [1], in test [2], in test [3], in test [5], in test [6] and in test [7] was above 100 µM each time. The TGI in [8] and in test [9] was above 100 µM throughout.

Regarding `Cc1n[n+]([O-])c(C)cc1[N+](=O)[O-]`, the TGI in test [1] was 27.6 µM; in test [2] it was 59.3 µM; in test [3] it was 29 µM; in [4], 60 µM; in [5] it was above 100 µM; in test [6], 40.6 µM. Further, the results for the TGI in test [7] and in test [9] were 28.2 µM and 42.1 µM, respectively.

For `N#Cc1ccccc1C#C/C=C\C#Cc1ccccc1N`, the GI50 in test [1] is 0.165 µM; in test [2], 4.49 µM; in [3] it was 1.34 µM; in [4], 6.6 µM; in [6] it was 34.9 µM; in [7], 3.76 µM. Moreover, the figures for the GI50 in test [8] and in test [9] were 4.12 µM and 2.44 µM, respectively. Besides, the TGI in test [1] was 2.64 µM; in [2], above 20.2 µM; in [3], 3.21 µM; in test [4], above 38.5 µM; in test [6], 94.1 µM; in test [7], above 100 µM. In addition, the figures for the TGI in test [8] and in test [9] were above 100 µM and 29.2 µM, respectively.

Take `CC1=CC(O)C(C(O)(C(F)(F)F)C(F)(F)F)C(C)(C)C1` (configuration not stated): the TGI in test [1] was above 10 µM; in test [2] it was above 10 µM; in test [4], above 10 µM; in test [6] it was 0.0823 µM; in [7], above 10 µM; in test [8], above 10 µM. This compound also returned a TGI in test [9] above 10 µM.

Turning to `O=C1C2Cc3c(n(C(=O)c4ccccc4)c4ccccc34)CC2C(=O)N1c1ccc(Nc2ccc(N3C(=O)C4Cc5c(n(C(=O)c6ccccc6)c6ccccc56)CC4C3=O)cc2)cc1` (configuration not stated), the TGI in test [1], in test [3], in test [4], in [5], in test [6] and in test [8] was above 100 µM throughout. Besides, the TGI in test [9] was above 100 µM.

With `Cc1ccc2nc(-c3ccc(NC(=O)c4ccc(N)cc4)c(S(=O)(=O)O)c3)sc2c1`, the TGI in test [1], in [3], in test [4], in test [5], in test [6] and in [7] was above 100 µM each time. Moreover, the TGI in [8] and in test [9] was above 100 µM throughout.

Regarding `N=c1ccc2nc(N)nn(O)c-2c1`, the TGI in test [1], in test [2], in test [3], in [4], in [5] and in test [6] was above 100 µM each time. Besides, the TGI in [7], in test [8] and in test [9] was above 100 µM throughout.

Turning to `O=C(Cc1csc2nc(-c3ccc(Cl)cc3)cn12)N/N=C/c1ccccc1O`, the GI50 in test [1] is 0.36 µM; in test [2] it was 7.93 µM; in test [3] it was 6.1 µM; in test [4], 4.65 µM; in test [6], 8.32 µM; in test [7], 6.81 µM. Besides, the GI50 was 3.42 µM in [8] and 2.6 µM in test [9]. The TGI is 83.8 µM in test [1]; above 100 µM in [2]; above 100 µM in test [3]; above 100 µM in [4]; above 100 µM in [6]; above 100 µM in [7]. For the same compound, the values for the TGI in test [8] and in test [9] were above 100 µM and 81.8 µM, respectively.

For `O=C(CC(c1ccccc1)C1C(=O)NC(=S)NC1=O)c1ccc([N+](=O)[O-])cc1` (configuration not stated), the TGI in [1], in [2], in [3], in [4], in test [5] and in [6] was above 100 µM each time. Further, the TGI in test [7], in test [8] and in test [9] was above 100 µM throughout.

With `O=C(/C=C1\N=C(c2ccccc2)N(c2nc3c(Cl)cc(Cl)cc3s2)C1=O)/C=C/c1ccccc1`, the TGI in test [1], in test [3], in test [5], in test [6], in test [7] and in test [8] was above 100 µM each time. The TGI in test [9] was above 100 µM.

In the case of `Cc1oc(N)c(S(=O)(=O)c2cc3ccccc3n(O)c2=N)c1C`, the TGI in test [1], in test [2], in test [3], in [4], in test [5] and in [6] was above 100 µM in each case. Besides, the TGI in [7] and in test [9] was above 100 µM each time.

As for `Nc1cc(S(=O)(=O)O)cc2ccc(S(=O)(=O)O)cc12`, the TGI in [1], in [2], in test [3], in test [5], in test [6] and in test [7] was above 100 µM each time. In addition, the TGI in [8] and in test [9] was above 100 µM in each case.

In the case of `CC1(C(=O)O)C[C@](C)(C(=O)OCc2ccccc2)C[C@](C)(C(=O)OCc2ccccc2)C1` (some centres not stated), the TGI in test [1] is 73.7 µM; in [2] it was 64.5 µM; in test [3], above 100 µM; in [4], above 100 µM; in test [5] it was above 100 µM; in test [7] it was above 100 µM. For the same compound, the TGI in [8] and in [9] was above 100 µM each time.

For the compound `Clc1ccc(Nc2nc(Nc3ccccc3)nc(Nc3ccc(-c4cc(-c5ccc(Cl)cc5)on4)cc3)n2)cc1`, the GI50 in test [1] is 27.4 µM; in test [2], 37.9 µM; in test [3] it was 17.8 µM; in test [4] it was 38.8 µM; in test [6], 3.38 µM; in [7], 26.4 µM. In addition, the results for the GI50 in [8] and in [9] were 21.4 µM and 21.1 µM, respectively. Besides, the TGI was above 100 µM in [1]; above 100 µM in test [2]; 69.7 µM in test [3]; above 100 µM in [4]; 55.1 µM in test [6]; above 100 µM in [7]. Further, the TGI in test [8] and in [9] was above 100 µM in each case.

Regarding `O=C(O)C(O)C(O)C(O)C(O)C(=O)O` (configuration not stated), the TGI in test [1], in test [2], in [3], in test [4], in [5] and in [6] was above 100 µM throughout. The TGI in test [7], in [8] and in test [9] was above 100 µM each time.

For the compound `O=C(Nc1ccc(-n2ccc3c(NC(=O)c4ccccc4)nccc32)cc1)Nc1cccc(C(F)(F)F)c1`, the GI50 in test [1] is 2.93 µM; in test [2], 1.75 µM; in [3], 4.57 µM; in test [4], 14.3 µM; in test [6], 6.39 µM; in test [7], 4.96 µM. Besides, the GI50 in [8] is 2.68 µM; in test [9], 10.9 µM. Moreover, the TGI in test [1] turned out to be 7.15 µM; in test [2] it was 18.4 µM; in test [3] it was 21.3 µM; in test [4] it was 29.8 µM; in [6], 21 µM; in test [7], 18.9 µM. The TGI in [8] was found to be 10.5 µM; in [9] it was 28.7 µM.

In the case of `Cc1cc(C)c2c(=O)n(CC(O)CN3CCN(CCOCCO)CC3)sc2n1` (configuration not stated), the TGI in test [1] was 41.3 µM; in test [2], 38.4 µM; in test [3] it was 32.8 µM; in test [4], above 100 µM; in test [5] it was 30.6 µM; in test [6] it was 38.9 µM. In addition, the TGI in [7], in test [8] and in [9] was above 100 µM in each case.
